In general, melting point refers to the temperature of the solid-liquid transition.

Experimental findings from the Bradley open melting point set (2014) are described below.

Molecule `Cc1ccc2sccc2c1` [5-methylbenzo[b]thiophene] yielded a melting point of 34 °C.

For the molecule `Clc1ccc(Cl)c(-c2cc(Cl)c(Cl)cc2Cl)c1` [PCB-101], the melting point came to 77 °C.

Consider `N#Cc1ccc2c(c1)OCO2` [Piperonylonitrile], for which the melting point came out at 94 °C.

In turn, `O=C1OC(c2ccc(O)cc2)(c2ccc(O)cc2)c2ccccc21` [phenolphthalein] returned a melting point of 260 °C.

Turning to `NC(=O)c1ccc([N+](=O)[O-])cc1` [4-Nitrobenzamide], the melting point came out at 202 °C.

Take `CCOC=O` [ethyl_formate]: the melting point was -80 °C.

As to `CC1(O)CCCC1` [1-methylcyclopentanol], the melting point was 37 °C.

`OB(O)c1cc2ccccc2nc1F` [2-fluoroquinoline-3-boronic acid] returned a melting point of 92 °C.

In the case of `CC(=O)/C(=N/Nc1cc(Cl)ccc1Cl)C(=O)C(F)(F)F`, the melting point amounted to 84 °C.

`C[C@]12CC[C@H]3[C@@H](CCC4=CC(=O)CC[C@@]43C)[C@@H]1CC[C@@H]2O` [(17beta)-17-Hydroxyandrost-4-en-3-one] displayed a melting point of 155 °C.

For `COC(=O)CC(=O)OC` [Dimethyl malonate], the melting point is -62 °C.

For the molecule `[SiH3][SiH3]` [Disilane], the melting point was -133 °C.

On to `O=C(NNc1ccccc1)NNc1ccccc1` [N'',N'''-Diphenylcarbonohydrazide], for which the melting point amounted to 173 °C.

Regarding `CC(=O)O[C@@]12CO[C@@H]1C[C@H](O)[C@@]1(C)C(=O)[C@H](O)C3=C(C)[C@@H](OC(=O)[C@H](O)[C@@H](NC(=O)OC(C)(C)C)c4ccccc4)C[C@@](O)([C@@H](OC(=O)c4ccccc4)[C@H]21)C3(C)C` [Docetaxel], the melting point came out at 232 °C.

For the molecule `OCCCCC(O)CO` (stereo not drawn) [1,2,6-hexanetriol], the melting point was -20 °C.

In the case of `CC=O` [Acetaldehyde], the melting point is -124 °C.

Molecule `OC(c1ccccc1)(c1ccccc1)c1ccccc1` [Triphenylmethanol] registered a melting point of 163 °C.

`COC(=O)c1ccccc1N` [Methyl 2-aminobenzoate]: the melting point is 24 °C.

Molecule `c1ccc([SiH](c2ccccc2)c2ccccc2)cc1` [triphenylsilane] returned a melting point of 43 °C.

On to `N#Cc1cccc([N+](=O)[O-])c1` [m-nitrobenzonitrile], for which the melting point worked out at 117 °C.

Consider `COc1ccc2c(c1)no[n+]2[O-]` [5-methoxybenzofuroxan], for which the melting point was 117 °C.

Consider `O=CC[C@H](O)[C@H](O)CO` [2-deoxy-D-ribose], for which the melting point is 85 °C.

Consider `CCOC(=O)C(C#N)=NO` [ethyl isonitrosocyanoacetate], for which the melting point was determined as 130 °C.

`N#Cc1ccc(C(c2ccc(C#N)cc2)n2cncn2)cc1` [letrozole] came in with a melting point of 181 °C.

`O=[N+]([O-])c1ccccc1CCl` [2-nitrobenzyl chloride] gave a melting point of 49 °C.

In the case of `O=C(C=C/C(=O)OCC)OCC` [diethyl_maleate], the melting point was -10 °C.

Consider `CC(C)(C)c1ccc(O)c(N)c1` [2-amino-4-tert-butylphenol], for which the melting point worked out at 163 °C.

For the molecule `CC(=O)Nc1ccccc1C(C)C` [2'-isopropylacetanilide], the melting point came to 73 °C.

Regarding `NCCCCCCN` [1,6-diaminohexane], the melting point amounted to 41 °C.

`Nc1ccccc1Br` [o-bromoaniline] returned a melting point of 30 °C.

The molecule `CC(C)[C@@H]1CC[C@@H](C)C[C@H]1O` [L-menthol] gave a melting point of 44 °C.

`COC(=O)CCC(C)C1CCC2C3C(O)C(O)C4CCCCC4(C)C3CCC12C` (stereo not drawn) [methyl 6,7-dihydroxycholan-24-oate] yielded a melting point of 105 °C.

Molecule `O=[N+]([O-])c1cccc(S(=O)(=O)Cl)c1` [3-nitrobenzenesulfonyl chloride] displayed a melting point of 61 °C.

Molecule `CC(=O)OCC(COC(C)=O)OC(C)=O` [glycerol triacetate] displayed a melting point of 3 °C.

`O=C(S)CCCC(=O)S` [methylenebis(thioacetic acid)] had a melting point of 128 °C.

In the case of `CCc1ccccc1O` [2-ethylphenol], the melting point was -18 °C.

Consider `C=CCCCCCCCC` [1-decene], for which the melting point is -66.1 °C.

The molecule `O=C1c2ccccc2CCc2ccccc21` [dibenzosuberone] came in with a melting point of 33 °C.

`CC1=CC(c2c(C)cc(C)cc2C)N=N1` (stereo not drawn) [5-methyl-3-(2,4,6-trimethylphenyl)-1H-pyrazole] gave a melting point of 129 °C.

`N#CCC(=O)O` [cyanoacetic acid] gave a melting point of 67 °C.

As to `COC(F)(F)C(Cl)Cl` [2,2-Dichloro-1,1-difluoroethyl methyl ether], the melting point was -35 °C.

As for `Nc1ccc(C(=O)O)cc1` [p-aminobenzoic acid], the melting point is 189 °C.

Turning to `CC(C)[C@H](NC(=O)OC(C)(C)C)C(=O)O` [N-boc-L-valine], the melting point amounted to 79 °C.

Regarding `CS(=O)c1ccc(cc1)/C=C3c2ccc(F)cc2C(CC(=O)O)=C3C` (stereo not drawn) [Sulindac], the melting point came out at 183 °C.

The molecule `N#CCc1nc2ccccc2s1` [2-benzothiazoleacetonitrile] registered a melting point of 101 °C.

Turning to `CCC(C)(C)c1ccc(OCC(=O)O)c(C(C)(C)CC)c1` [2,4-di(tert-pentyl)phenoxyacetic acid], the melting point was 126 °C.

Molecule `O=C1OC(c2ccc(O)cc2)(c2ccc(O)cc2)c2ccccc21` [Phenolphthalein] returned a melting point of 262 °C.

`COC(=O)c1cccc(Cl)c1` [methyl 3-chlorobenzoate] showed a melting point of 21 °C.

Turning to `O=C1O[C@H]([C@@H](O)CO)C(O)=C1O` [ascorbic acid], the melting point came out at 191 °C.

`CCOC(=O)c1ccc(OC)c(OC)c1` [ethyl 3,4-dimethoxybenzoate] came in with a melting point of 44 °C.

In turn, `Cc1cc(C(C)(C)C)c(O)c(C(C)(C)C)c1` [2,6-di-tert-butyl-4-methylphenol] yielded a melting point of 71 °C.

The molecule `Oc1ccc(F)cc1` [4-fluorophenol] showed a melting point of 46.5 °C.

`N#CC1(O)CCN(Cc2ccccc2)CC1` [1-benzyl-4-cyano-4-hydroxypiperidine] had a melting point of 97 °C.

In the case of `c1ccc2cc3cc4ccccc4cc3cc2c1` [2,3-Benzanthracene, Naphthacene], the melting point stood at 341 °C.

For the molecule `CCCCCCCC(=O)CC` [3-decanone], the melting point is -4 °C.

Take `CC(C(=O)O)c1cccc(C(=O)c2ccccc2)c1` (stereo not drawn) [ketoprofen]: the melting point amounted to 94 °C.

With `CCCCN(CCCC)CCCC` [N,N-Dibutylbutan-1-amine], the melting point is -70 °C.

`Cc1cc(F)ccc1O` [4-fluoro-2-methylphenol] gave a melting point of 34 °C.

The molecule `CSc1ccccc1C(=O)O` [2-(methylthio)benzoic acid] registered a melting point of 167 °C.

Take `CCOC(N)=O` [Ethyl carbamate]: the melting point stood at 49 °C.

The molecule `O=C(Cl)c1ccccc1F` [2-fluorobenzoyl chloride] displayed a melting point of 5 °C.

For the molecule `CNC[C@H](O)c1ccc(O)c(O)c1` [epinephrine], the melting point came out at 212 °C.

As for `N#CCc1ccc(CC#N)cc1` [p-Xylylene dicyanide], the melting point came out at 96 °C.

With `C(=C\c1cccc(/C=C/c2ccccc2)c1)/c1ccccc1` [1,3-bis[(E)-2-phenylethenyl]benzene], the melting point is 150 °C.

The molecule `O=C(/C=C/c1ccc(Br)o1)c1ccco1` [(2E)-3-(5-bromofuran-2-yl)-1-furan-2-ylprop-2-en-1-one] yielded a melting point of 77 °C.

In turn, `CCOc1ccc(NC(=O)CC(C)O)cc1` (stereo not drawn) [bucetin] registered a melting point of 160 °C.

Regarding `O=C[C@H](O)[C@@H](O)[C@H](O)[C@H](O)CO` [D-glucose, anhydrous], the melting point stood at 151 °C.

In turn, `COc1ccc(C=O)cc1B(O)O` [5-formyl-2-methoxybenzeneboronic acid] returned a melting point of 160 °C.

`CN(C)c1ccc(C=C/C(=N\Nc2ccccc2)c2ccccc2)cc1` yielded a melting point of 128 °C.

`Cc1nc2ccccc2o1` [2-methylbenzoxazole] gave a melting point of 3 °C.

As for `CC12CCC=C1C1CCC3CC(=O)CCC3(C)C1CC2` (stereo not drawn) [androst-14-en-3-one], the melting point was 116 °C.

Turning to `CC(=O)c1ccc(Cl)cc1O` [4'-chloro-2'-hydroxyacetophenone], the melting point was found to be 29 °C.

Molecule `Clc1cc(Cl)cc(Cl)c1` [1,3,5-Trichlorobenzene] yielded a melting point of 64 °C.

`COc1ccc2c(c1)CC1(CCC(O)(c3ccc(C(C)(C)C)cc3)CC1)C2=O` (stereo not drawn) showed a melting point of 166 °C.

`NC(=S)C1COc2ccccc2O1` (stereo not drawn) [1,4-benzodioxane-2-thiocarboxamide] displayed a melting point of 174 °C.

On to `CCCCS` [1-butanethiol], for which the melting point was -116 °C.

Turning to `CC[C@@H](C(=O)[C@@H](C)[C@@H](O)[C@H](C)[C@@H]1O[C@@H]([C@@H](CC)C(=O)O)CC[C@@H]1C)[C@H]1O[C@]2(C=C[C@@H](O)[C@]3(CC[C@@](C)([C@H]4CC[C@](O)(CC)[C@H](C)O4)O3)O2)[C@H](C)C[C@@H]1C`, the melting point was 113 °C.

Take `Cc1cccc(Br)c1` [3-bromotoluene]: the melting point was -40 °C.

`COC(=O)c1ccc(OC)cc1` [methyl_4-methoxybenzoate] yielded a melting point of 50 °C.

Take `Clc1ccc(C(c2ccc(Cl)cc2)C(Cl)(Cl)Cl)cc1` [4,4'-DDT]: the melting point was 110 °C.

For `O=C(O)C(c1ccccc1)c1ccccc1` [diphenylacetic acid], the melting point is 147 °C.

As for `CN(C)/C=C/[N+](=O)[O-]` [1-dimethylamino-2-nitroethylene], the melting point came out at 103 °C.

On to `Cc1cccc(N)n1` [2-amino-6-methylpyridine], for which the melting point was found to be 43 °C.

Regarding `COC(=O)c1ccc(O)cc1` [methylparaben], the melting point was 131 °C.

In turn, `O=C(CO)c1ccccc1` [2-hydroxyacetophenone] registered a melting point of 6 °C.

Molecule `O=C(c1ccccc1)c1cccc(O)c1` [3-hydroxybenzophenone] came in with a melting point of 114 °C.

On to `CCCC#N` [butyronitrile], for which the melting point was -112 °C.

For the molecule `O=[N+]([O-])c1ccc(N/N=C2/Cc3c2ccc2ccccc32)c([N+](=O)[O-])c1`, the melting point was found to be 275 °C.
